Experimental findings from ChEMBL document CHEMBL1201862, “PubChem BioAssay data set” (2004) are described below.

Assay [1] addresses Calcium/calmodulin-dependent protein kinase type II subunit gamma (Homo sapiens, UniProt Q13555). Type of assay: functional.
The target of a further assay is Ephrin type-A receptor 2 (Homo sapiens, UniProt P29317). Type of assay: functional.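 Also: EPHA2 tested as one member of a kinome-wide kinase panel.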
For assay [2], the target named is Mitogen-activated protein kinase 1 (Homo sapiens, UniProt P28482). It counts as functional.
Chain of Mitogen-activated protein kinase 1 (P28482 whole entry): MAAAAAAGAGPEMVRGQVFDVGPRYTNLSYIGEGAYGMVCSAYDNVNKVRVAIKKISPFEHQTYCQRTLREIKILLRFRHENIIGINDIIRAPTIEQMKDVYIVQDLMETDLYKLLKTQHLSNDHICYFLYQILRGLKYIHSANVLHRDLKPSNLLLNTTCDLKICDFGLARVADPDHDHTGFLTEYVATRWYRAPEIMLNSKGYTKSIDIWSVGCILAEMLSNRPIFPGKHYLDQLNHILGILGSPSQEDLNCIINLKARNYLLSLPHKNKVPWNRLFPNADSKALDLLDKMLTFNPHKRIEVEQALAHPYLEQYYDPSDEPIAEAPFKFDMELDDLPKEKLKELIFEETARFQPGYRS
Assay [3] has as its target T1, Interleukin-1 receptor-associated kinase 4 (Homo sapiens, UniProt Q9NWZ3).
T1 sequence (Q9NWZ3 whole entry): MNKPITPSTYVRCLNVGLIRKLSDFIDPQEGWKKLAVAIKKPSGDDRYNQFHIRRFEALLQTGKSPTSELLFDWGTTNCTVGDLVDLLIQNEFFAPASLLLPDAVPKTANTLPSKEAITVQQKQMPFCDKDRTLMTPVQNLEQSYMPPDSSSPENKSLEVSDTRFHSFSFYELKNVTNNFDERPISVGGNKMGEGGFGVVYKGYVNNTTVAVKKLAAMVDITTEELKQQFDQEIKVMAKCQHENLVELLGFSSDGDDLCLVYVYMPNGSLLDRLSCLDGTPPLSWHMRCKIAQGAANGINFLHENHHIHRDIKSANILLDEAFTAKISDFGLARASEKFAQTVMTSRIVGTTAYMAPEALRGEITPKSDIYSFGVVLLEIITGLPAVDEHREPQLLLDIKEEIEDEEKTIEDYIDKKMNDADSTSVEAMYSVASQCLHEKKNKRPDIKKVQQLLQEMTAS
Type of assay: functional.

A further assay in a line: cells. Type of assay: functional, cell-based.

Activity calls are given as the source filed them.

Usually Ki stands for the dissociation constant of the complex between target and ligand, obtained from inhibition or displacement. A word on the EC50: it is the midpoint of the concentration-response curve.

Chain of Calcium/calmodulin-dependent protein kinase type II subunit gamma (Q13555 whole entry): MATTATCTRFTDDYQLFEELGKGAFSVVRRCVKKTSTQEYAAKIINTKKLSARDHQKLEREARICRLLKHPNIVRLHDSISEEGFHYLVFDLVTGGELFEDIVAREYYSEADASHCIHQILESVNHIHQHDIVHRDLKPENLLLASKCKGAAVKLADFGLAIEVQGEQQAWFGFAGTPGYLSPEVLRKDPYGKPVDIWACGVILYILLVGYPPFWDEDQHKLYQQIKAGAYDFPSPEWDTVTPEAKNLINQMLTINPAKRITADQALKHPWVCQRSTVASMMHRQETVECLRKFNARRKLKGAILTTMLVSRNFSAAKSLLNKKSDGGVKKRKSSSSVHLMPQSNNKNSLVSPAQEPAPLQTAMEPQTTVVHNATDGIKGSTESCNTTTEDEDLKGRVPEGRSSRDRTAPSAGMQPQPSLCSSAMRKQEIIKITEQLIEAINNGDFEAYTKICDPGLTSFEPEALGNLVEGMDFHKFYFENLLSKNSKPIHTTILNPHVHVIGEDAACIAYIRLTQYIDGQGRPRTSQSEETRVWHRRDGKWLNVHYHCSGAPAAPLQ
Chain of Ephrin type-A receptor 2 (P29317 whole entry): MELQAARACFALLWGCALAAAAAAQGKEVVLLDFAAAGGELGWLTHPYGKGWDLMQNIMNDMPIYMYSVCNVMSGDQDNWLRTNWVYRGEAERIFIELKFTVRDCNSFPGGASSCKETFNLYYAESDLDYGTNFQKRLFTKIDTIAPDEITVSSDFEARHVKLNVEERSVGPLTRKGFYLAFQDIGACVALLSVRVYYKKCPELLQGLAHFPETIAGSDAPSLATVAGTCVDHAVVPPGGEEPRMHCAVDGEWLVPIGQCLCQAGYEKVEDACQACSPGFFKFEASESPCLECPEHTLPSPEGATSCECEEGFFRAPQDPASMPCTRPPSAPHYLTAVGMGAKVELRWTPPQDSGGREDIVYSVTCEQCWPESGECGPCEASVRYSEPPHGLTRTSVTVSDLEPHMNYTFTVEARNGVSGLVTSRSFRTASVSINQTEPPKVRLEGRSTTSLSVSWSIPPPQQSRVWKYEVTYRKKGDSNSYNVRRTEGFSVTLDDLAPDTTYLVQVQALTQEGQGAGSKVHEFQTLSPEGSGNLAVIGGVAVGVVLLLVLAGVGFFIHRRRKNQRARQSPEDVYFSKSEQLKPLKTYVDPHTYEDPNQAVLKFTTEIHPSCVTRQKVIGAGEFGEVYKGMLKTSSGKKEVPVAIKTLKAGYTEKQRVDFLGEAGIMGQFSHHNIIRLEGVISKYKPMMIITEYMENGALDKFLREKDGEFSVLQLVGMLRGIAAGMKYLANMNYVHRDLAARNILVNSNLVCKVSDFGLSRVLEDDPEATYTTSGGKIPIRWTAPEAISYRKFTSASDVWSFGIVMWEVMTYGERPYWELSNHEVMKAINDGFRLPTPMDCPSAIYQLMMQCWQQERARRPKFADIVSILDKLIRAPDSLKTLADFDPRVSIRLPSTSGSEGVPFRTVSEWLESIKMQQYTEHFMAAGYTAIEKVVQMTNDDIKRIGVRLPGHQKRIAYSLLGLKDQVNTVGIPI

For the compound `CS(=O)(=O)N(Cc1ccc2[nH]c(=O)c3cccn3c2c1)C1CC1`, the Ki in assay [1] is 0.251 µM (active); on Ephrin type-A receptor 2, > 3.16 µM (inactive); in assay [2], > 7.94 µM (inactive); in assay [3], > 10 µM (inactive).
As for `Cc1cc(NC(c2ccc(Cl)cc2)c2ccc3cccnc3c2O)no1` (stereo not given), the EC50 in the assay “cells” was 6.45 µM (active).
